{"source": "PubChem BioAssay AID493102", "about": "(Broad Institute, 2011)"}
{"system": "SK-MEL-5 TRPM1-promoter luciferase reporter, 24 h", "experiment": "reducers of TRPM1 reporter luminescence, concentration series – cell-based, SK-MEL-5, cherry-picked, set 4, MITF inhibitor project, dose response (AID 493102);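 note: actives lower the luciferase signal so the potency reflects inhibition of reporter expression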", "units": {"AC50": "µM"}}
{"smiles": "CCOC(=O)c1nnn(-c2ccc([N+](=O)[O-])cc2[N+](=O)[O-])c1C", "AC50": 8.85}
{"smiles": "O=C(CCl)N(c1ccccc1)C1CCCCC1", "AC50": 4.51}
{"smiles": "COc1cc(/C=N/NC(N)=O)c(Br)cc1OCC(=O)Nc1ccccc1C", "AC50": 17.8}
{"smiles": "O=C(Nc1ccc(N2CCOCC2)cc1)c1cnsn1", "AC50": 3.05}
{"smiles": "Cc1ccc(-c2c[n+](Cc3cccc(Cl)c3)c3n2CCC3)cc1", "AC50": 12.2}
{"smiles": "O=c1c(Cl)c(Cl)cnn1Cc1ccc(F)cc1", "AC50": 8.9}
{"smiles": "Cc1ccccc1Cn1c(=N)n(CC(=O)c2ccc([N+](=O)[O-])cc2)c2ccccc21", "AC50": 5.63}
{"smiles": "CCSCCc1nnc(NC(=O)Nc2cccc(C(F)(F)F)c2)s1", "AC50": 8.99}
{"smiles": "COc1ccc(C(=O)C(CN2CCCC2)c2ccccc2)cc1", "note": "(configuration not stated)", "AC50": 9.13}
{"smiles": "Nc1ccc(Oc2cccc(Oc3ccc(N)cc3)c2)cc1", "AC50": 1.1}
{"smiles": "CN(C)CC1CC/C(=C\\c2ccc(O)cc2)C1=O", "note": "(configuration not stated)", "AC50": 12.9}
{"smiles": "Cc1ccc(-c2cc3onc(-c4ccccc4)c3c(=O)n2C)cc1", "AC50": 9.77}
{"smiles": "COc1cc(C2C(C#N)=C(N)Oc3cc4c(cc32)OCO4)cc(OC)c1OC", "note": "(configuration not stated)", "AC50": 0.365}
{"smiles": "Cc1cc(C)c2ccc(N)nc2c1O", "AC50": 9.58}
{"smiles": "O=C(Nc1ccc(F)cc1)c1nc(S(=O)(=O)Cc2ccccc2)ncc1Cl", "AC50": 9.45}
{"smiles": "Oc1c(CN2CCCCC2)cc(COCc2ccccc2)c2cccnc12", "AC50": 2.17}
{"smiles": "CCOc1ccc(NC(=O)c2ccccn2)cc1", "AC50": 4.4}
{"smiles": "O=C(O)c1cc(N/N=C/C(Cl)=C/c2ccccc2)ccc1Cl", "AC50": 10.4}
{"smiles": "Nc1nc2ccccc2n1/N=C/c1ccc([N+](=O)[O-])s1", "AC50": 2.81}
{"smiles": "CCCCN1C=CC(=C2C(=O)c3ccccc3C2=O)C=C1", "AC50": 0.921}
{"smiles": "O=[N+]([O-])c1cc(CN2CCN(c3ccccc3)CC2)c(O)c2ncccc12", "AC50": 8.3}
{"smiles": "Cc1ccc2nc3cc([N+](=O)[O-])cc([N+](=O)[O-])c3cc2c1", "AC50": 8.46}
{"smiles": "CCN(CC)S(=O)(=O)c1cccc(C(=O)N/N=C/c2ccc([N+](=O)[O-])o2)c1", "AC50": 14.1}
{"smiles": "CCS(=O)(=O)c1ccc(N=Nc2ccc(O)c3ncccc23)c(OC)c1", "AC50": 9.23}
{"smiles": "O=C1C(Cl)=C(Nc2ccccc2)C(=O)c2ccccc21", "AC50": 2.88}
{"smiles": "O=C(COc1ccccc1)N/N=C/c1ccc([N+](=O)[O-])o1", "AC50": 21.5}
{"smiles": "CC1=CC2/C=C(\\C)CCC(O)C(O)/C=C/C(=O)C23C(=O)NC(CC(C)C)C3C1C", "note": "(configuration not stated)", "AC50": 6.58}
{"smiles": "Cc1cc2ncn(/N=C/c3ccc([N+](=O)[O-])o3)c2cc1C", "AC50": 21.9}
{"smiles": "CN(C)c1ccc(-n2cccc2/C=C/[N+](=O)[O-])cc1", "AC50": 10.2}
{"smiles": "O=C(/C=C/c1ccccc1)Nc1cccc(C(=O)O)c1", "AC50": 1.52}
{"smiles": "CC(C)(c1ccccc1)c1ccc(OCC(O)CNC2CCN(Cc3ccccc3)CC2)cc1", "note": "(configuration not stated)", "AC50": 7.94}
{"smiles": "N#C/C(=C\\C=C\\c1ccccc1[N+](=O)[O-])C(=O)NCc1ccccc1", "AC50": 14.7}
{"smiles": "CC(C)CC(=O)NC(c1cccs1)c1ccc2cccnc2c1O", "note": "(configuration not stated)", "AC50": 3.71}
{"smiles": "CCOC(=O)N1C(=O)[C@@](CC)(c2ccccc2)N1C(=O)OCC", "AC50": 12.5}
{"smiles": "O=C(/C=C/c1ccc([N+](=O)[O-])s1)N1CCCC1", "AC50": 9.86}
{"smiles": "CC1CCCCC1NC(=O)/C(C#N)=C/c1ccccc1F", "note": "(configuration not stated)", "AC50": 14.4}
{"smiles": "COC(=O)CSC1=C(C#N)C(=O)NC(c2ccccc2)S1", "note": "(configuration not stated)", "AC50": 7.06}
{"smiles": "CCOc1ccccc1NC(=O)C(=O)N/N=C/c1cc(Br)ccc1O", "AC50": 3.34}
{"smiles": "O=C1NC(=O)C(=Cc2ccc(-c3ccc(Cl)cc3)o2)C(=O)N1", "AC50": 9.2}
{"smiles": "CN(Cc1ccccc1)C1=CC(=[N+]2CCCC2)CC(C)(C)C1", "AC50": 1.55}
{"smiles": "N=c1n(CC(=O)c2ccc([N+](=O)[O-])cc2)c2ccccc2n1Cc1ccccc1Cl", "AC50": 4.03}
{"smiles": "O=C1CN(C(=O)Cn2ncc(Cl)c(Cl)c2=O)c2ccccc2N1", "AC50": 8.67}
{"smiles": "COc1ccccc1OCCN1CSC(=S)N(C)C1", "AC50": 12.2}
{"smiles": "CC(OC(=O)c1ccc([N+](=O)[O-])s1)C(=O)NC1CCCCC1C", "note": "(configuration not stated)", "AC50": 12}
{"smiles": "Cc1ccc(NC2=C(Cl)C(=O)c3ccccc3C2=O)cc1", "AC50": 5.25}
{"smiles": "O=C(Nc1ccc(N2CCN(C(=O)c3ccc(Cl)cc3)CC2)cc1)c1ccc([N+](=O)[O-])o1", "AC50": 7.32}
{"smiles": "CC1(C)CC(=O)C=C(NC2=CC3OC(c4ccccc4)OCC3OC2=O)C1", "note": "(configuration not stated)", "AC50": 7.71}
